This is an account of results in patent US20240398757A1 (COCRYSTAL PHARMA, INC., priority 2022, published 2024).

The target of this assay is T1, SARS2 protease (Severe acute respiratory syndrome coronavirus 2, UniProt P0DTD1).
T1 construct: SARS2 protease was added to a final concentration of 30 nM
Description: SARS-CoV-2 protease inhibition assay (SARS2 FRET protease assay). It counts as biochemical. Conditions: IC50 (μM), SARS2 protease 30 nM, peptide substrate 1.3 μM, 120 minutes at 37° C., compounds 20 μM to 0.075 nM.
In the case of `CCCC[C@H](NC(=O)OC(c1ccccc1)C(F)(F)c1cccc(Cl)c1)C(=O)N[C@@H](C[C@H]1CCNC1=O)C(=O)C(=O)NC1CC1` (some centres unmarked) [Compound A168], the IC50 was 0.75 µM.
The figure for `CC(C)C[C@H](NC(=O)O[C@H](c1cccc(Cl)c1)C(C)(C)c1cccc(Cl)c1)C(=O)N[C@@H](C[C@@H]1CCNC1=O)C(=O)C(=O)NC1CC1` [Compound A147] is 0.558 µM; for `CCCC[C@H](NC(=O)OC(c1ccccc1)C(F)(F)c1cccc(Cl)c1)C(=O)N[C@@H](C[C@@H]1CCNC1=O)C(=O)C(N)=O` (stereo partly drawn) [Compound A224, 2-(3-chlorophenyl)-2,2-difluoro-1-phenylethyl ((S)-1-(((S)-4-amino-3,4-dioxo-1-((S)-2-oxopyrolidin-3-yl)butan-2-yl)amino)-1-oxohexan-2-yl) carbamate] it is 0.0001 µM.
The figure for `CC(C)C[C@H](NC(=O)OC(c1ccccc1)C(C)(C)c1cccc(Cl)c1)C(=O)N[C@H](C=O)C[C@@H]1CCCNC1=O` (some centres unmarked) [Compound A42] is 0.009 µM; for `CC(C)C[C@H](NC(=O)OC(c1cccc(Cl)c1)C1(c2cccc(Cl)c2)CCNCC1)C(=O)N[C@@H](C[C@@H]1CCNC1=O)C(=O)C(=O)NC1CC1` (some centres unmarked) [Compound A83] it is 0.51 µM.
The figure for `CCC[C@H](NC(=O)OC(c1ccccc1)C(F)(F)c1cccc(Cl)c1)C(=O)N[C@@H](C[C@@H]1CCNC1=O)C(=O)C(=O)NC1CC1` (some centres unmarked) [Compound A109] is 0.17 µM; for `CCOC(=O)/C=C/[C@H](C[C@@H]1CCNC1=O)NC(=O)[C@H](CC(C)C)NC(=O)OC(c1ccccc1)C(F)(F)c1cccc(Cl)c1` (some centres unmarked) [Compound A128] it is 3.95 µM.
Regarding `CC(C)C(OC(=O)N[C@@H](Cc1ccccc1)C(=O)N[C@H](C=O)C[C@@H]1CCNC1=O)C(F)(F)c1cccc(Cl)c1` (stereo partly drawn) [Compound A266, 1-(3-Chlorophenyl)-1,1-difluoro-3-methylbutan-2-yl ((S)-1-oxo-1-(((S)-1-oxo-3-((S)-2-oxopyrrolidin-3-yl)propan-2-yl)amino)-3-phenylpropan-2-yl)carbamate], the IC50 came out at 0.0001 µM.
As for `O=C[C@H](C[C@@H]1CCNC1=O)NC(=O)[C@H](CC1CC1)NC(=O)OC(c1ccccc1)C(F)(F)c1cccc(Cl)c1` (some centres unmarked) [Compound A95], the IC50 turned out to be 0.0009 µM.
The figure for `CCCCC[C@H](NC(=O)OC(c1ccccc1)C(F)(F)c1cccc(Cl)c1)C(=O)N[C@H](C=O)C[C@@H]1CCNC1=O` (some centres unmarked) [Compound A19] is 0.007 µM; for `CCNC(=O)C(=O)[C@H](C[C@@H]1CCNC1=O)NC(=O)[C@@H](CC1(CC)CCC1)NC(=O)O[C@@H](c1ccccc1)C(F)(F)c1cccc(Cl)c1` [Compound A320] it is 0.0001 µM.
The figure for `CCCC[C@H](NC(=O)OC(c1ccc(F)cc1)C(F)(F)c1cccc(F)c1)C(=O)N[C@@H](C[C@@H]1CCNC1=O)C(=O)C(=O)NC1CC1` (some centres unmarked) [Compound A58] is 0.16 µM.
Compound `CCNC(=O)C(=O)[C@H](C[C@@H]1CCNC1=O)NC(=O)[C@H](Cc1ccccc1)NC(=O)OC(C1CCCCC1)C(F)(F)c1cccc(Cl)c1` (stereo partly drawn) [Compound A255, 2-(3-Chlorophenyl)-1-cyclohexyl-2,2-difluoroethyl ((S)-1-(((S)-4-(ethylamino)-3,4-dioxo-1-((S)-2-oxopyrrolidin-3-yl)butan-2-yl)amino)-1-oxo-3-phenylpropan-2-yl)carbamate] came in with an IC50 of 0.208 µM.
The figure for `O=C[C@H](C[C@@H]1CCNC1=O)NC(=O)[C@H](CC1CC1)NC(=O)O[C@@H](c1ccccc1)C(F)(F)c1cccc(Cl)c1` [Compound A156] is 0.289 µM.
The figure for `CCNC(=O)C(=O)[C@H](C[C@@H]1CCNC1=O)NC(=O)[C@H](CC1CCCCC1)NC(=O)OC(c1ccccc1)C(F)(F)c1cccc(Cl)c1` (some centres unmarked) [Compound A50] is 0.01 µM.
Take `NC(=O)C(=O)[C@H](C[C@@H]1CCNC1=O)NC(=O)[C@H](CC1CCCCC1)NC(=O)OC(c1ccccc1)C(F)(F)c1cccc(Cl)c1` (some centres unmarked) [Compound A204]: the IC50 was determined as 0.001 µM.
The figure for `CCCC[C@H](NC(=O)OC(c1ccc(F)cc1)C(F)(F)c1cccc(Cl)c1)C(=O)N[C@@H](C[C@@H]1CCNC1=O)C(=O)C(=O)NC1CC1` (some centres unmarked) [Compound A70] is 0.028 µM; for `O=C[C@H](C[C@@H]1CCNC1=O)NC(=O)[C@H](CC1CC1)NC(=O)O[C@H](c1ccccc1)C(F)(F)c1cccc(Cl)c1` [Compound A157] it is 0.0002 µM.
The figure for `CCCC[C@H](NC(=O)OC(c1ccn(C)n1)C(F)(F)c1cccc(Cl)c1)C(=O)N[C@@H](C[C@@H]1CCNC1=O)C(=O)C(=O)NCC` (some centres unmarked) [Compound A313] is 0.139 µM; for `CCN1CCC(NC(=O)C(=O)[C@H](C[C@@H]2CCNC2=O)NC(=O)[C@H](CC(C)C)NC(=O)OC(c2ccccc2)C(CC)(CC)c2cccc(Cl)c2)CC1` (some centres unmarked) [Compound A17] it is 30.3 µM; for `O=C[C@H](C[C@@H]1CCNC1=O)NC(=O)[C@H](Cc1ccccc1)NC(=O)O[C@@H](c1ccccc1)C(F)(F)c1cccc(Cl)c1` [Compound A253, (S)-2-(3-chlorophenyl)-2,2-difluoro-1-phenylethyl ((S)-1-oxo-1-(((S)-1-oxo-3-((S)-2-oxopyrrolidin-3-yl)propan-2-yl)amino)-3-phenylpropan-2-yl)carbamate] it is 0.002 µM.
`CCCC[C@H](NC(=O)CC(O)(c1ccccc1)C(C)(C)c1cccc(Cl)c1)C(=O)N[C@H](C=O)C[C@@H]1CCNC1=O` (stereo partly drawn) [Compound A260, (2S)-2-(4-(3-chlorophenyl)-3-hydroxy-4-methyl-3-phenylpentanamido)-N—((S)-1-oxo-3-((S)-2-oxopyrrolidin-3-yl)propan-2-yl)hexanamide] registered an IC50 of 0.002 µM.
In turn, `CC(C)C[C@H](NC(=O)OC(c1ccccc1)C(F)(F)c1cccc(C(C)C)c1)C(=O)N[C@@H](C[C@@H]1CCNC1=O)C(=O)C(=O)NC1CC1` (some centres unmarked) [Compound A182] registered an IC50 of 0.001 µM.
The figure for `CCNC(=O)C(=O)[C@H](C[C@@H]1CCNC1=O)NC(=O)[C@H](CC1(C)CCC1)NC(=O)O[C@H](c1ccccc1)C(F)(F)c1cccc(Cl)c1` [Compound A326] is 0.367 µM; for `CCCC[C@H](NC(=O)OC(c1cccc(F)c1)C(F)(F)c1cccc(Cl)c1)C(=O)N[C@H](C=O)C[C@@H]1CCNC1=O` (some centres unmarked) [Compound A99] it is 0.0006 µM.
The figure for `O=C(N[C@@H](CC1CC1)C(=O)N[C@@H](C[C@@H]1CCNC1=O)C(=O)C(=O)NC1CC1)O[C@@H](c1ccccc1)C(F)(F)c1cccc(Cl)c1` [Compound A176] is 0.002 µM; for `CCCC[C@H](NC(=O)OC(c1ccccc1)C(F)(F)c1cccc(F)c1)C(=O)N[C@@H](C[C@@H]1CCNC1=O)C(=O)C(=O)NC1CC1` (some centres unmarked) [Compound A87] it is 0.09 µM.
The figure for `CC(C)C[C@H](NC(=O)O[C@H](c1ccccc1)C(F)(F)c1cccc(C(C)C)c1)C(=O)N[C@@H](C[C@@H]1CCNC1=O)C(=O)C(=O)NC1CC1` [Compound A194] is 0.005 µM; for `CCCC[C@H](NC(=O)OC(c1ccccc1)C(F)(F)c1cccc(Cl)c1)C(=O)N[C@H](C=O)CC1CC(C)NC1=O` (some centres unmarked) [Compound A112] it is 0.179 µM.
The compound `CCCC[C@H](NC(=O)OC(c1ccc(F)cc1)C1(c2cccc(F)c2)CC1)C(=O)N[C@H](C=O)C[C@@H]1CCNC1=O` (some centres unmarked) [Compound A64] gave an IC50 of 0.003 µM.
The figure for `CCCC[C@H](NC(=O)OC(c1cccnc1)C(F)(F)c1cccc(Cl)c1)C(=O)N[C@@H](C[C@@H]1CCNC1=O)C(=O)C(=O)NC1CC1` (some centres unmarked) [Compound A252] is 0.002 µM; for `CCC[C@H](NC(=O)O[C@H](c1ccccc1)C(F)(F)c1cccc(Cl)c1)C(=O)N[C@H](C=O)C[C@@H]1CCNC1=O` [Compound A208] it is 0.004 µM; for `CCCC[C@H](NC(=O)OC(c1cccc(F)c1)C1(c2cccc(F)c2)CC1)C(=O)N[C@@H](C[C@@H]1CCNC1=O)C(=O)C(=O)NC1CC1` (some centres unmarked) [Compound A104] it is 0.309 µM.
The figure for `CCCC[C@H](NC(=O)O[C@@H](c1ccccc1)C(F)(F)c1cccc(F)c1)C(=O)N[C@@H](C[C@@H]1CCNC1=O)C(=O)C(=O)NCC` [Compound A283, (S)-2,2-difluoro-2-(3-fluorophenyl)-1-phenylethyl ((S)-1-(((S)-4-(ethylamino)-3,4-dioxo-1-((S)-2-oxopyrrolidin-3-yl)butan-2-yl)amino)-1-oxohexan-2-yl)carbamate] is 0.122 µM; for `CCCC[C@H](NC(=O)OC(c1ccccc1)C1(c2cccc(Cl)c2)CC1)C(=O)N[C@@H](C[C@@H]1CCNC1=O)C(=O)C(=O)NC1CC1` (some centres unmarked) [Compound A136] it is 0.083 µM; for `CCCC[C@H](NC(=O)O[C@H](c1ccccc1)C(C)(C)c1cccc(Cl)c1)C(=O)N[C@H](C=O)C[C@H]1CCNC1=O` [Compound A123] it is 5.3 µM.
`CCCC[C@H](NC(=O)O[C@H](c1ccc(F)cc1)C(F)(F)c1cccc(Cl)c1)C(=O)N[C@@H](C[C@@H]1CCNC1=O)C(=O)C(=O)NC1CC1` [Compound A200] displayed an IC50 of 0.0004 µM.
In the case of `CCCC[C@H](NC(=O)OC(c1ccccc1)C1(c2cccc(Cl)c2)CC1)C(=O)N[C@H](C=O)C[C@@H]1CCNC1=O` (some centres unmarked) [Compound A90], the IC50 was 0.04 µM.
The figure for `CC(C)C[C@H](NC(=O)O[C@@H](c1ccccc1)C(F)(F)c1cccc(C(C)C)c1)C(=O)N[C@@H](C[C@@H]1CCNC1=O)C(=O)C(=O)NC1CC1` [Compound A193] is 0.135 µM; for `CCC(CC)(c1cccc(Cl)c1)C(OC(=O)N[C@@H](CC(C)C)C(=O)N[C@H](C=O)C[C@@H]1CCNC1=O)c1cccc(Cl)c1` (some centres unmarked) [Compound A66] it is 0.259 µM; for `CCCC[C@H](NC(=O)OC(c1ccccc1)C(F)(F)c1cccc(Cl)c1)C(=O)N[C@@H](C[C@@H]1CCNC1=O)C(=O)C(=O)NCCN(CC)CC` (some centres unmarked) [Compound A271] it is 0.936 µM.
The figure for `CC(C)C[C@H](NC(=O)OC(c1ccccc1)C1(c2cccc(Cl)c2)CCNCC1)C(=O)N[C@@H](C[C@@H]1CCNC1=O)C(=O)C(=O)NC1CC1` (some centres unmarked) [Compound A52] is 1.42 µM; for `CCCCCOC(=O)N[C@@H](CC(C)C)C(=O)N[C@@H](C[C@@H]1CCNC1=O)C(=O)C(=O)NC1CCN(C)CC1` [Compound A8] it is 15 µM; for `CCCCCOC(=O)N[C@@H](CC(C)C)C(=O)N[C@H](C=O)C[C@@H]1CCNC1=O` [Compound A13] it is 0.08 µM.

As a reminder, the IC50 is the midpoint of a concentration-inhibition curve. High values mean weaker potency in that assay, low ones greater potency in that assay.
